Literature values, collected in patent US20100239707A1 (priority 2007, published 2010).
Entries after “also recorded” stand apart in the source; their conditions may differ.

What was measured:
[1] = not given; remark: listed apart in the source
[2] = unprimed

| Compound | effect on muscle fibers / myotubes (myotubes) | other results |
| --- | --- | --- |
| [Ca+2].[Cl-].[Cl-] [anhydrous CaCl2, CaCl2] |  | intravenous LD50: about 40 mg/kg |
| COc1cc2c(c(OC)c1OC)-c1ccc(OC)c(=O)cc1[C@@H](NC(C)=O)CC2 [colchicine] | causes the disassembly of myotubes |  |
| OO [hydrogen peroxide] |  | concentration inducing apoptosis (cell culture cells): micromolar concentrations |
| COc1ccc(CNc2nc(NCc3ccc(OC)cc3)c3ncn(C(C)C)c3n2)cc1 [myoseverin] | result in cell fission with cells that exhibit DNA sysnthesis and cell growth |  |
| COC(=O)Nc1nc2ccc(C(=O)c3cccs3)cc2[nH]1 [nocodazole] | causes the disassembly of myotubes; also recorded: result in cell fission with cells that exhibit DNA sysnthesis and cell growth |  |
| CC(=O)O[C@H]1C(=O)[C@@]2(C)[C@H]([C@H](OC(=O)c3ccccc3)[C@]3(O)C[C@H](OC(=O)[C@H](O)[C@@H](NC(=O)c4ccccc4)c4ccccc4)C(C)=C1C3(C)C)[C@]1(OC(C)=O)CO[C@@H]1C[C@@H]2O [taxol] | causes the disassembly of myotubes | intravenous LD50: 33 mg/kg |
| CC[C@]1(O)C[C@@H]2CN(CCc3c([nH]c4ccccc34)[C@@](C(=O)OC)(c3cc4c(cc3OC)N(C)[C@H]3[C@@](O)(C(=O)OC)[C@H](OC(C)=O)[C@]5(CC)C=CCN6CC[C@]43[C@@H]65)C2)C1 [vinblastine] | causes the disassembly of myotubes | oral LD50 [1]: 300 to 400 mg/kg |
| lipopolysaccharide [LPS] |  | LD50 [2]: ~1 mg/kg |
